Reference: patent publication US12139520B2 (priority 2020, dated 2024)
Numbered stars: 1 amine (or outer) side, 2 acyl side, 3 side chain; on linkers, the order of the positions; unused ones are H or OH. Bridge positions count the residues as written; N and C are the ends. Square brackets hold non-standard residues; d marks the D form. Peptide text beside a SMILES is read from it. * marks the point of attachment. C20 diacid = O=C(O)CCCCCCCCCCCCCCCCCCC(=O)*; γGlu = O=C(O)[C@H](CCC(=O)[*:2])N[*:1]; Hyp = O=C(O)[C@@H]1C[C@@H](O)CN1; NMeI = CC[C@H](C)[C@H](NC)C(=O)O; Sar = CNCC(=O)O

Molecular target: T1, hAMY3 receptor (Homo sapiens, UniProt O60896+P30988)
T1 sequence (P30988 25-474): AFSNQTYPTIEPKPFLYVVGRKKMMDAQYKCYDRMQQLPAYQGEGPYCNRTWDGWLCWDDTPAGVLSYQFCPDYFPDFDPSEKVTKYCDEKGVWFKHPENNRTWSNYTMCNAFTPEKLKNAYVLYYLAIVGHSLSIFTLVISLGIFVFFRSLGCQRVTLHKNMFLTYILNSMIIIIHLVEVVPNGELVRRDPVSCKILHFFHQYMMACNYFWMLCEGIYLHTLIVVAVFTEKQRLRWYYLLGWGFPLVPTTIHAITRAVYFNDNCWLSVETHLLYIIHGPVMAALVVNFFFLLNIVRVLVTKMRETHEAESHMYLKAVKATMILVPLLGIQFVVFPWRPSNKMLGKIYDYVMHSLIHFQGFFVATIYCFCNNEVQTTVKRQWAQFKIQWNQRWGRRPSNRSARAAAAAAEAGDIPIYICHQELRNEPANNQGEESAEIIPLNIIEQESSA
T1 sequence (O60896 24-148 partner): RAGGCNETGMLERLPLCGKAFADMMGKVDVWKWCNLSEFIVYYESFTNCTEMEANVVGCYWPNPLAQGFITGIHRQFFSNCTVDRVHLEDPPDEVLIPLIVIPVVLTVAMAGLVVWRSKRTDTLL
Experiment: cAMP assay for in vitro receptor activation, hAMY3-R
Format: cell-based
Settings: cAMP assay, hAMY3 receptor; read-out: hAMY3R EC50
Description: General Protocols for cAMP Assays for Measuring In Vitro Receptor Activation
Cells stably overexpressing the hAMY3 receptor were obtained from Ogeda (now Astellas Pharma), sub-cloned and a monoclonal cell-line with an appropriate assay-window was expanded, aliquoted and frozen.
An aliquot was thawed and plated in DPBS with 0.05% casein and 0.5 mM IBMX as 2000 cells/well in a 384-well format. The cells were then immediately stimulated for 30 min at room temperature with graded doses of test compound using human amylin (Bachem, cat no. H-7905) as a positive control. cAMP accumulation was measured using a Cisbio assay for Gs coupled receptors (cat. no. 62AM4PEC), where the assay reagents were added as per the manufacturer's instructions and time-resolved fluorescence energy transfer recorded after one hour.

EC50 [nM]	SMILES
0.017	CC(C)C[C@H](NC(=O)[C@H](CCCNC(=N)N)NC(=O)[C@H](CCC(N)=O)NC(=O)[C@@H](NC(=O)[C@@H](NC(=O)[C@@H]1CSSC[C@H](NC(=O)CN)C(=O)N[C@@H](CCCNC(=N)N)C(=O)N[C@@H](Cc2ccccc2)C(=O)NCC(=O)N[C@@H]([C@@H](C)O)C(=O)N1)[C@@H](C)O)C(C)C)C(=O)N[C@@H](C)C(=O)N[C@@H](Cc1c[nH]cn1)C(=O)N[C@@H](Cc1ccccc1)C(=O)N[C@@H](CC(C)C)C(=O)N[C@@H](Cc1ccc(O)cc1)C(=O)N[C@@H](CCC(N)=O)C(=O)N[C@@H](Cc1ccccc1)C(=O)N[C@H](C(=O)N[C@@H](CC(=O)O)C(=O)N[C@@H](CCCCN)C(=O)N[C@@H](CC(=O)O)C(=O)N[C@@H](CCCCN)C(=O)N[C@@H](CC(=O)O)C(=O)N[C@@H](CC(N)=O)C(=O)N[C@H](C(=O)N[C@@H](C)C(=O)N1CCC[C@H]1C(=O)N[C@@H](CCCNC(=N)N)C(=O)N[C@H](C(=O)N[C@@H](CCCCN)C(=O)N[C@H](C(=O)NCC(=O)N1CCC[C@H]1C(=O)N[C@@H](CCC(N)=O)C(=O)NCC(=O)N[C@@H](Cc1ccc(O)cc1)C(N)=O)C(C)C)[C@@H](C)O)C(C)C)[C@@H](C)O [compound 369] (H-GCRFGTCTVQRLAHFLYQFTDKDKDNVAPRTKVGPQGY-NH2; disulfide 2-7; N-terminus assumed)
0.009	CC[C@H](C)[C@H](NC(=O)[C@H](CCC(N)=O)NC(=O)[C@H](Cc1c[nH]cn1)NC(=O)[C@H](C)NC(=O)[C@H](CC(C)C)NC(=O)[C@H](CCCNC(=N)N)NC(=O)[C@H](CCC(N)=O)NC(=O)[C@@H](NC(=O)[C@@H](NC(=O)[C@@H]1CSSC[C@H](NC(=O)[C@@H](N)CCCCN)C(=O)N[C@@H](CC(N)=O)C(=O)N[C@@H]([C@@H](C)O)C(=O)N[C@@H](C)C(=O)N[C@@H]([C@@H](C)O)C(=O)N1)[C@@H](C)O)C(C)C)C(=O)N[C@@H](Cc1ccc(O)cc1)C(=O)N[C@@H](CCC(N)=O)C(=O)N[C@@H](Cc1ccccc1)C(=O)N[C@H](C(=O)N[C@@H](CC(=O)O)C(=O)N[C@@H](CCCCN)C(=O)N[C@@H](CC(=O)O)C(=O)N[C@@H](CCCCN)C(=O)N[C@@H](CC(=O)O)C(=O)N[C@@H](CC(N)=O)C(=O)N[C@H](C(=O)N[C@@H](C)C(=O)N1CCC[C@H]1C(=O)N[C@@H](CCCNC(=N)N)C(=O)N[C@H](C(=O)N[C@@H](CCCCN)C(=O)N[C@H](C(=O)NCC(=O)N[C@@H](CO)C(=O)N[C@@H](CC(N)=O)C(=O)NCC(=O)N[C@@H](Cc1ccc(O)cc1)C(N)=O)C(C)C)[C@@H](C)O)C(C)C)[C@@H](C)O [compound 34] (H-KCNTATCTVQRLAHQIYQFTDKDKDNVAPRTKVGSNGY-NH2; disulfide 2-7; N-terminus assumed)
0.015	CC[C@H](C)[C@@H](C(=O)N[C@@H](CC(C)C)C(=O)N[C@@H](CO)C(=O)N[C@@H](CO)C(=O)N[C@H](C(=O)N[C@@H](CCC(=O)O)C(=O)N[C@H](C(=O)NCC(=O)N[C@@H](CO)C(=O)N[C@@H](CC(N)=O)C(=O)N[C@H](C(=O)N1C[C@H](O)C[C@H]1C(N)=O)[C@@H](C)O)C(C)C)[C@@H](C)O)N(C)C(=O)[C@H](C)NC(=O)CN(C)C(=O)[C@H](Cc1ccccc1)NC(=O)[C@H](CO)NC(=O)[C@H](CO)NC(=O)[C@H](CCCNC(=N)N)NC(=O)[C@H](CCC(N)=O)NC(=O)[C@H](CC(C)C)NC(=O)[C@H](Cc1ccccc1)NC(=O)[C@H](Cc1c[nH]cn1)NC(=O)[C@H](C)NC(=O)[C@H](CC(C)C)NC(=O)[C@H](CCCNC(=N)N)NC(=O)[C@H](CCC(=O)O)NC(=O)[C@@H](NC(=O)[C@H](C)NC(=O)[C@@H]1CSSC[C@H](NC(=O)[C@H](CCCNC(=N)N)NC(=O)CC[C@H](NC(=O)CCCCCCCCCCCCCCCCCCC(=O)O)C(=O)O)C(=O)N[C@@H](CCC(N)=O)C(=O)N[C@@H]([C@@H](C)O)C(=O)N[C@@H](C)C(=O)N[C@@H]([C@@H](C)O)C(=O)N1)[C@@H](C)O [compound 80] ({C20 diacid-γGlu}-RCQTATCATERLAHFLQRSSF[Sar]A[NMeI]LSSTEVGSNT[Hyp]-NH2; disulfide 2-7)
